Measured values as given in ChEMBL document CHEMBL3808294, “Design, synthesis and anti-HIV activity of novel quinoxaline derivatives” (Eur J Med Chem, 2016).
Converted amounts (≈) assume the structure as drawn.

Key:
Vero = experiment: Cytotoxicity against African green monkey Vero cells assessed as cell growth inhibition after 24 hrs by MTT assay; type: cell-based; details: Chlorocebus sabaeus
[1] = tested on: Human immunodeficiency virus 1; experiment: Antiviral activity against HIV1 3B infected in human MT4 cells assessed as protection against virus-induced cytopathogenic effect after 5 days by MTT assay; type: functional, organism-based; details: for IC50: Human immunodeficiency virus 1, 3B, MT4, 120 h
[2] = Cytotoxicity against human MT4 cells […] assessed as cell growth inhibition after 5 days by MTT assay; type: cell-based

| Structure (SMILES) | IC50 (Vero) [µg/mL] | %max [1] [%] | IC50 [1] [µg/mL] | CC50 at 120 h [2] [µg/mL] |
| --- | --- | --- | --- | --- |
| Cc1ccc(-c2nc3cc(F)c(Cl)cc3nc2-c2ccc(C)cc2)cc1 | > 100 | 4 | > 27.8 | 27.8 (≈ 76.6 µM) |
| Nc1nc2cc(F)c(Cl)cc2nc1N | > 100 | 9 | > 38.4 | 38.5 (≈ 181 µM) |
| Fc1cc2nccnc2cc1Cl | 13.7 (≈ 75 µM) | 3 | > 91.1 | 91.2 (≈ 499 µM) |
| Cc1nc2cc(F)c(Cl)cc2nc1C | > 100 | 5 | > 49.7 | 49.7 (≈ 236 µM) |
| Fc1cc2nc(-c3ccccc3)c(-c3ccccc3)nc2cc1Cl | > 100 | 3 | > 11.8 | 11.8 (≈ 35.2 µM) |
| Fc1ccc(-c2nc3cc(F)c(Cl)cc3nc2-c2ccc(F)cc2)cc1 | > 100 | 3 | > 15.4 | 15.4 (≈ 41.7 µM) |
| COc1ccc(-c2nc3cc(F)c(Cl)cc3nc2-c2ccc(OC)cc2)cc1 | > 100 | 1 | > 30.5 | 30.6 (≈ 77.4 µM) |
| O=c1[nH]cnc2c1ncn2[C@H]1CC[C@@H](CO)O1 [DIDANOSINE] |  |  | 17.9 (≈ 76 µM) |  |
| Nc1ccn([C@@H]2CS[C@H](CO)O2)c(=O)n1 [LAMIVUDINE] |  |  | 0.58 (≈ 2.53 µM) | 20 (≈ 87.2 µM) |
| Cc1ccnc2c1NC(=O)c1cccnc1N2C1CC1 [NEVIRAPINE] | > 100 |  | 0.075 (≈ 0.282 µM) |  |
| CC(=O)O[C@H]1C(=O)[C@@]2(C)[C@H]([C@H](OC(=O)c3ccccc3)[C@]3(O)C[C@H](OC(=O)[C@H](O)[C@@H](NC(=O)c4ccccc4)c4ccccc4)C(C)=C1C3(C)C)[C@]1(OC(C)=O)CO[C@@H]1C[C@@H]2O [PACLITAXEL] | > 100 |  |  |  |
| Cc1cn([C@H]2C[C@H](N=[N+]=[N-])[C@@H](CO)O2)c(=O)[nH]c1=O [ZIDOVUDINE] |  |  | 0.002 (≈ 0.00748 µM) | 2 (≈ 7.48 µM) |
